Experimental data: patent US10624852B2, “Liposomes comprising a calcium phosphate-containing precipitate” (The University of North Carolina at Chapel Hill, priority 2009, dated 2020)
Non-standard residues stand in square brackets, D forms with d. No end group written: not given here. pY = N[C@@H](Cc1ccc(OP(=O)(O)O)cc1)C(=O)O

Tests used:
[1] = Trapping / encapsulation efficiency; format: physicochemical; conditions: cargo encapsulated in LCP-II
Protocol: To […] calculate the trapping efficiency of siRNA in the LCP nanoparticles, the anti-luciferase siRNA was replaced with a carboxyfluoroscein (FAM)-labeled siRNA having the same sequence (Dharmacon Inc, Lafayette, Colo.). The FAM-labeled siRNA LCP nano-particles were dissolved in lysis buffer (2 mM EDTA and 0.05% Trixton-100 in pH 7.8 Tris buffer) for quantitative analysis of the siRNA encapsulation efficiency. Standard siRNA solutions were prepared by diluting the FAM-labeled siRNA in the same lysis buffer. Then, 100 μl of the standard siRNA solution or the LCP solution was added to a 96-well plate and the fluorescence intensity was measured at 525 nm with a plate reader (Plate Chameleon Multilabel Detection Platform, Bioscan Inc., Washington D.C.). The amount of entrapped siRNA in the LCP nanoparticles was calculated based on the standard calibration curve.

H-460 cells = experiment: Calcium release in live cells (Fura-2 imaging); format: cell-based, human; conditions: 20 μM cytochalasin D, cells with LCP nanoparticles
Protocol: Two μl of 2 mM Fura-2 AM and 2 μl of 20% Pluronic-127 were mixed for 5 min and added to 1 ml phenol red free DMEM cell culture medium before use. About 5×10^4 H-460 cells were incubated in a Lab-Tek 8-well glass chamber slide system (Fisher, Pittsburgh, Pa.) for 24 h. Two hundred μl of a 2 μM Fura-2 AM solution was added to the cell culture chamber, followed by a 50 min incubation. After washing two times with PBS, the cells were incubated in phenol red-free DMEM cell culture medium and imaged with a Nikon TE2000U microscope and OrcaER camera. Emission was monitored at 510 nm with an alternating excitation wavelength of 340 nm and 380 nm from a Xenon light source. After adding 50 μl of LCP nanoparticles, fluorescence image was obtained by setting the excitation wavelength at 340 nm for green color and 380 nm for red color. The ratio of 340 nm/380 nm was proportional to the intracellular free Ca^2+ concentration (Hirst et al. (1999) Methods Mol Biol 114:31-39). All experiments were performed at room temperature.
To study the inhibition of endocytosis, 20 mM cytochalasin D was prepared in DMSO solution and freshly diluted 1,000 times by phenol red-free DMEM medium for use. After incubating with Fura-2 AM for 60 min and 20 μM cytochalasin D for 5 min, cells were imaged as described in the presence of LCP nanoparticles.

Compound | trapping efficiency in LCP-II nanoparticles [1] | effect on LCP-induced color change (endocytosis inhibition) (H-460 cells)
Nc1ccn([C@@H]2O[C@H](COP(=O)(O)O)[C@@H](O)[C@@H]2O)c(=O)n1 [AraC monophosphate] | about 94% | –
C=C1[C@@H](C)[C@H]2[C@H](Cc3ccccc3)NC(=O)[C@]23[C@H](OC(C)=O)/C=C/[C@@](C)(O)C(=O)[C@@H](C)C/C=C/[C@H]3[C@@H]1O [cytochalasin D] | – | significantly reduced the color change
EEEEpYFELV (EEEE[pY]FELV) [peptide wherein the tyrosine (Y) is phosphorylated] | ~82% | –

More lines, main results first:

trapping efficiency in LCP-II nanoparticles [1] | Compound | effect on LCP-induced color change (endocytosis inhibition) (H-460 cells)
~88% | Nc1ccn(C2OC(COP(=O)(O)O)[C@H](O)C2(F)F)c(=O)n1 (some centres unmarked) [gemcitabine monophosphate, Gemcitabine monophosphate] | –
about 40% | O=C([O-])c1ccccc1-c1c2ccc(=O)cc-2oc2cc([O-])ccc12.[Na+].[Na+] [sodium fluorescein, reference compound] | –
